Test results as given in PubChem BioAssay AID1963847 (Molecular Pharmacology Branch, DTP, NCI, 2024).

Tested on: 415267-285-R-J2-PDC complex spheroid viability
Assay: Anticancer human tumor 415267-285-R-J2-PDC patient-derived breast carcinoma cell line growth inhibition [POLQ]
Conditions: for IC50: curve of first compound; for viability, T/C: stronger effect = lower value
Summary of the method: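 Complex spheroid viability model combining PDC tumour cells with endothelial (HUVEC) and MSC stromal cells. Novobiocin, ART-558 or RP6685 were tested singly and in combination with standard and investigational anticancer drugs. Each was titrated in half-log steps from near clinical Cmax, or from 10 microM where Cmax was unknown.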

[1] = second compound 0.0316 µM, first compound 0.0316 µM
[2] = second compound 0.0316 µM, first compound 0.1 µM
[3] = second compound 0.0316 µM, first compound 0.316 µM
[4] = second compound 0.0316 µM, first compound 1 µM
[5] = second compound 0.0316 µM, first compound 3.16 µM
[6] = second compound 0.0316 µM, first compound 10 µM
[7] = second compound 0.1 µM, first compound 0.0316 µM
[8] = second compound 0.1 µM, first compound 0.1 µM
[9] = second compound 0.1 µM, first compound 0.316 µM
[10] = second compound 0.1 µM, first compound 1 µM
[11] = second compound 0.1 µM, first compound 3.16 µM
[12] = second compound 0.1 µM, first compound 10 µM
[13] = second compound 0.316 µM, first compound 0.0316 µM
[14] = second compound 0.316 µM, first compound 0.1 µM
[15] = second compound 0.316 µM, first compound 0.316 µM
[16] = second compound 0.316 µM, first compound 1 µM
[17] = second compound 0.316 µM, first compound 3.16 µM
[18] = second compound 0.316 µM, first compound 10 µM
[19] = second compound 1 µM, first compound 0.0316 µM
[20] = second compound 1 µM, first compound 0.1 µM
[21] = second compound 1 µM, first compound 0.316 µM
[22] = second compound 1 µM, first compound 1 µM
[23] = second compound 1 µM, first compound 3.16 µM
[24] = second compound 1 µM, first compound 10 µM
[25] = second compound 3.16 µM, first compound 0.0316 µM
[26] = second compound 3.16 µM, first compound 0.1 µM
[27] = second compound 3.16 µM, first compound 0.316 µM
[28] = second compound 3.16 µM, first compound 1 µM
[29] = second compound 3.16 µM, first compound 3.16 µM
[30] = second compound 3.16 µM, first compound 10 µM
[31] = second compound 10 µM, first compound 0.0316 µM
[32] = second compound 10 µM, first compound 0.1 µM
[33] = second compound 10 µM, first compound 0.316 µM
[34] = second compound 10 µM, first compound 1 µM
[35] = second compound 10 µM, first compound 3.16 µM
[36] = second compound 10 µM, first compound 10 µM
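Note: spheroids exposed to compounds for one week before readout.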
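Throughout, for viability, T/C: luminescence used as stand-in measure of viable cells; 100% = DMSO vehicle control viability.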

Work on `COc1ccc([C@@H](O)c2cc(-c3ncnc4cc(N5CCOCC5)ccc34)c(F)cc2Cl)nn1` + COC1C(OC(N)=O)C(O)C(Oc2ccc3c(O)c(NC(=O)c4ccc(O)c(CC=C(C)C)c4)c(=O)oc3c2C)OC1(C)C yielded an IC50 (second compound 0.0316 µM) of 8.63 µM, an IC50 (second compound 0.1 µM) of 8.03 µM and an IC50 (second compound 0.316 µM) of 7.09 µM. It also gave an IC50 (second compound 1 µM) of 9.18 µM, an IC50 (second compound 3.16 µM) of 8.15 µM and an IC50 (second compound 10 µM) of 9.75 µM. The viability, T/C [1] was 104%, the viability, T/C [2] was 92.5% and the viability, T/C [3] was 97.9%. It also gave a viability, T/C [4] of 89%, a viability, T/C [5] of 78.4% and a viability, T/C [6] of 45.3%. It also gave a viability, T/C [7] of 95.3%, a viability, T/C [8] of 104% and a viability, T/C [9] of 97.9%. It also gave a viability, T/C [10] of 106%, a viability, T/C [11] of 99.5% and a viability, T/C [12] of 38.3%. It also gave a viability, T/C [13] of 101%, a viability, T/C [14] of 98% and a viability, T/C [15] of 101%. It also gave a viability, T/C [16] of 87.7%, a viability, T/C [17] of 77.9% and a viability, T/C [18] of 38.3%. For the same compound, the viability, T/C [19] was 94.3%, the viability, T/C [20] was 97.2% and the viability, T/C [21] was 97.1%. The viability, T/C [22] was 100%, the viability, T/C [23] was 76.2% and the viability, T/C [24] was 48%. The viability, T/C [25] was 105%, the viability, T/C [26] was 108% and the viability, T/C [27] was 97.1%. For the same compound, the viability, T/C [28] was 103%, the viability, T/C [29] was 79.7% and the viability, T/C [30] was 43.5%. It also gave a viability, T/C [31] of 102%, a viability, T/C [32] of 97.8% and a viability, T/C [33] of 98%. The viability, T/C [34] was 96.3%, the viability, T/C [35] was 90.9% and the viability, T/C [36] was 48.8%.
In the case of `CCCS(=O)(=O)Nc1ccc(F)c(C(=O)c2c[nH]c3ncc(-c4ccc(Cl)cc4)cc23)c1F` + Cc1cccc(N(C)C(=O)C2C(O)CCN2c2nc(C)cc(C(F)(F)F)c2C#N)c1, the IC50 (second compound 0.0316 µM) is reported as over 10 µM, the IC50 (second compound 0.1 µM) is reported as over 10 µM and the IC50 (second compound 0.316 µM) is reported as over 10 µM. The IC50 (second compound 1 µM) was over 10 µM, the IC50 (second compound 3.16 µM) was over 10 µM and the IC50 (second compound 10 µM) was over 10 µM. For the same compound, the viability, T/C [1] was 98.8%, the viability, T/C [2] was 111% and the viability, T/C [3] was 99%. The viability, T/C [4] was 93.8%, the viability, T/C [5] was 86.3% and the viability, T/C [6] was 91.2%. It also gave a viability, T/C [7] of 104%, a viability, T/C [8] of 93.5% and a viability, T/C [9] of 93.4%. The viability, T/C [10] was 102%, the viability, T/C [11] was 96.5% and the viability, T/C [12] was 88.9%. The viability, T/C [13] was 105%, the viability, T/C [14] was 99.4% and the viability, T/C [15] was 90.3%. The viability, T/C [16] was 102%, the viability, T/C [17] was 97.7% and the viability, T/C [18] was 86.7%. The viability, T/C [19] was 105%, the viability, T/C [20] was 101% and the viability, T/C [21] was 102%. It also gave a viability, T/C [22] of 99.9%, a viability, T/C [23] of 107% and a viability, T/C [24] of 79.3%. The viability, T/C [25] was 111%, the viability, T/C [26] was 103% and the viability, T/C [27] was 104%. For the same compound, the viability, T/C [28] was 104%, the viability, T/C [29] was 93.7% and the viability, T/C [30] was 91.1%. For the same compound, the viability, T/C [31] was 96.4%, the viability, T/C [32] was 96% and the viability, T/C [33] was 109%. It also gave a viability, T/C [34] of 111%, a viability, T/C [35] of 94% and a viability, T/C [36] of 73.8%.
In the case of `C=CCn1c(=O)c2cnc(Nc3ccc(N4CCN(C)CC4)cc3)nc2n1-c1cccc(C(C)(C)O)n1` + Nc1ccc(C#CCN(C(=O)Cc2ncc(C(F)(F)F)cc2C(F)(F)F)c2ccc(F)cc2)nn1, the IC50 (second compound 0.0316 µM) is reported as 0.447 µM, the IC50 (second compound 0.1 µM) is reported as 0.404 µM and the IC50 (second compound 0.316 µM) is reported as 0.427 µM. The IC50 (second compound 1 µM) was 0.396 µM, the IC50 (second compound 3.16 µM) was 0.342 µM and the IC50 (second compound 10 µM) was 0.318 µM. For the same compound, the viability, T/C (second compound 0.0316 µM, first compound 0.00316 µM) was 95.1%, the viability, T/C (second compound 0.0316 µM, first compound 0.01 µM) was 102% and the viability, T/C [1] was 94.8%. For the same compound, the viability, T/C [2] was 98.2%, the viability, T/C [3] was 69% and the viability, T/C [4] was 5.9%. For the same compound, the viability, T/C (second compound 0.1 µM, first compound 0.00316 µM) was 107%, the viability, T/C (second compound 0.1 µM, first compound 0.01 µM) was 104% and the viability, T/C [7] was 102%. It also gave a viability, T/C [8] of 87.6%, a viability, T/C [9] of 62.2% and a viability, T/C [10] of 6.38%. The viability, T/C (second compound 0.316 µM, first compound 0.00316 µM) was 108%, the viability, T/C (second compound 0.316 µM, first compound 0.01 µM) was 108% and the viability, T/C [13] was 86.9%. For the same compound, the viability, T/C [14] was 96.3%, the viability, T/C [15] was 65.5% and the viability, T/C [16] was 5.51%. It also gave a viability, T/C (second compound 1 µM, first compound 0.00316 µM) of 104%, a viability, T/C (second compound 1 µM, first compound 0.01 µM) of 95% and a viability, T/C [19] of 101%. For the same compound, the viability, T/C [20] was 87%, the viability, T/C [21] was 61.1% and the viability, T/C [22] was 4.94%. The viability, T/C (second compound 3.16 µM, first compound 0.00316 µM) was 106%, the viability, T/C (second compound 3.16 µM, first compound 0.01 µM) was 93.1% and the viability, T/C [25] was 95.3%. It also gave a viability, T/C [26] of 92.5%, a viability, T/C [27] of 53% and a viability, T/C [28] of 7.32%. It also gave a viability, T/C (second compound 10 µM, first compound 0.00316 µM) of 94.3%, a viability, T/C (second compound 10 µM, first compound 0.01 µM) of 95.5% and a viability, T/C [31] of 107%. It also gave a viability, T/C [32] of 91.7%, a viability, T/C [33] of 50.3% and a viability, T/C [34] of 5.62%.
For `CC1COCCN1c1cc(-c2ccnn2C)c2ccnc(-c3ccn[nH]3)c2n1` (stereo not drawn) + Nc1ccc(C#CCN(C(=O)Cc2ncc(C(F)(F)F)cc2C(F)(F)F)c2ccc(F)cc2)nn1, the IC50 (second compound 0.0316 µM) was 0.0427 µM, the IC50 (second compound 0.1 µM) was 0.0402 µM and the IC50 (second compound 0.316 µM) was 0.04 µM. It also gave an IC50 (second compound 1 µM) of 0.0369 µM, an IC50 (second compound 3.16 µM) of 0.0326 µM and an IC50 (second compound 10 µM) of under 0.0316 µM. The viability, T/C [1] was 63.7%, the viability, T/C [2] was 11.2% and the viability, T/C [3] was 5.02%. The viability, T/C [4] was 3.87%, the viability, T/C [5] was 4.17% and the viability, T/C [6] was 3.9%. It also gave a viability, T/C [7] of 60.3%, a viability, T/C [8] of 10.8% and a viability, T/C [9] of 4.23%. The viability, T/C [10] was 3.18%, the viability, T/C [11] was 4.26% and the viability, T/C [12] was 3.58%. It also gave a viability, T/C [13] of 60%, a viability, T/C [14] of 11.4% and a viability, T/C [15] of 4.5%. The viability, T/C [16] was 3.99%, the viability, T/C [17] was 3.82% and the viability, T/C [18] was 4%. For the same compound, the viability, T/C [19] was 56.4%, the viability, T/C [20] was 8.91% and the viability, T/C [21] was 4.69%. For the same compound, the viability, T/C [22] was 3.73%, the viability, T/C [23] was 3.7% and the viability, T/C [24] was 3.28%. For the same compound, the viability, T/C [25] was 51.2%, the viability, T/C [26] was 9.4% and the viability, T/C [27] was 5.57%. The viability, T/C [28] was 3.36%, the viability, T/C [29] was 3.4% and the viability, T/C [30] was 4.22%. The viability, T/C [31] was 42.1%, the viability, T/C [32] was 10.7% and the viability, T/C [33] was 5.92%. For the same compound, the viability, T/C [34] was 3.97%, the viability, T/C [35] was 3.84% and the viability, T/C [36] was 4.9%.
